Experimental data as given in US20250326771A1, “PIPERAZINE DERIVATIVES USEFUL IN HIV THERAPY” (VIIV HEALTHCARE COMPANY, priority 2022, published 2025).
pIC50: −log10 of the molar value.

Key:
[1] = target: cIAP2-BIR2 (Homo sapiens (Human), UniProt Q13489); test: BIR binding assay (FRET competition), cIAP2 BIR2
How it was run: (§1)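 Each domain is run separately at its own level: 50 nM cIAP1-BIR3, 100 nM XIAP-BIR3, 325 nM for cIAP1-BIR2 or cIAP2-BIR2. Probe is a 200 nM fluorescent SMAC peptide, and the value is IC50 from FRET competition.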

[2] = target: cIAP1-BIR2 (Homo sapiens (Human), UniProt Q13490); test: BIR binding assay (FRET competition), cIAP1 BIR2
How it was run: as §1

[3] = target: XIAP-BIR2 (Homo sapiens (Human), UniProt P98170); test: BIR binding assay (FRET competition), XIAP BIR2; conditions: FRET competition binding; read-out: XIAP BIR2 (pIC50) (converted)
How it was run: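 Compounds in a 15-point, 3-fold series competed with an AlexaFluor647 SMAC peptide (AVPIAQKSE, 200 nM) for 200 nM His-tagged XIAP-BIR2 over 60 min in pH 7.4 HEPES/CHAPS/DTT buffer. Eu-W1024 (2 nM) was then added for 30 min. IC50 and pIC50 were derived from the 615 nm/665 nm emission ratio by variable-slope fit.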

[4] = target: XIAP-BIR3 (Homo sapiens (Human), UniProt P98170); test: BIR binding assay (FRET competition), XIAP BIR3; conditions: for XIAP BIR3 vs BIR2 separation window: fold separation (FS) for XIAP
How it was run: as §1

[5] = test system: Jurkat HIV-luciferase clones; test: Jurkat latency reversal assay; format: cell-based; conditions: Homo sapiens, 48 h; Jurkat latency reversal assay potency; read-out: Jurkat pEC50 (converted)
How it was run: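 Latency reversal was scored as provirus-driven luciferase luminescence in pooled Jurkat HIV-luc clones after 48 h compound exposure at 37° C. EC50 and maximal activation over vehicle were fitted with a four-parameter logistic model.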

[6] = target: cIAP2-BIR3 (Homo sapiens (Human), UniProt Q13489); test: BIR binding assay (FRET competition), cIAP2 BIR3; conditions: for cIAP2 BIR3 vs BIR2 separation window: fold separation (FS) for cIAP2
[7] = target: cIAP1-BIR3 (Homo sapiens (Human), UniProt Q13490); test: BIR binding assay (FRET competition), cIAP1 BIR3; conditions: for cIAP1 BIR3 vs BIR2 separation window: fold separation (FS) for cIAP1
How it was run: as §1

Sequence of XIAP-BIR3 (P98170 241-356): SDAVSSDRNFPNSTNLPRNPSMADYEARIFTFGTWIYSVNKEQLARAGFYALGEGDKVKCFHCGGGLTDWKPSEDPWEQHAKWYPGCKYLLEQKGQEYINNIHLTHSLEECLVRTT
Sequence of cIAP1-BIR2 (Q13490 173-257): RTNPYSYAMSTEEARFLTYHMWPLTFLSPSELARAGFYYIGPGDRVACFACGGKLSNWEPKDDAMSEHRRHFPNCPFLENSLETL
Sequence of cIAP1-BIR3 (Q13490 253-363): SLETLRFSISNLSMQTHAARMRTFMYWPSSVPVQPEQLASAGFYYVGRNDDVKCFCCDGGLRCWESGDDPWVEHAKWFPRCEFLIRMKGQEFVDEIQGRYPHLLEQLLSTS
Sequence of cIAP2-BIR2 (Q13489 158-242): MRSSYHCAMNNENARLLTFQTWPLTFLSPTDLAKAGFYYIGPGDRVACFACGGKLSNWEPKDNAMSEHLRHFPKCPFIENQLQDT
Sequence of XIAP-BIR2 (P98170 124-240): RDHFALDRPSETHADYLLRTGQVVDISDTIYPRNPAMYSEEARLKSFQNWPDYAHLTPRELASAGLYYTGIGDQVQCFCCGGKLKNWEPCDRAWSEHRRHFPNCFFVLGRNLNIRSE
Sequence of cIAP2-BIR3 (Q13489 238-349): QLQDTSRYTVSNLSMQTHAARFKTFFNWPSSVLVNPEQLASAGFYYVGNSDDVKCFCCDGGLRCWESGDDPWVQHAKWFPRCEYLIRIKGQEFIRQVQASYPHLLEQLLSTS

SMILES | pIC50 [1] | pIC50 [2] | IC50 [3] [nM] | pIC50 [4] | XIAP BIR3 vs BIR2 separation window [4] | EC50 [5] [nM] | pIC50 [6] | cIAP2 BIR3 vs BIR2 separation window [6] | pIC50 [7] | cIAP1 BIR3 vs BIR2 separation window [7]
C[C@@H]1CN(CC(=O)N2CC(C)(C)c3[nH]c(=O)c(Cc4ccc(F)cc4)cc32)[C@@H](CN2CCO[C@H](C(=O)NCCOCCOCCOCCNC(=O)[C@@H]3CN(C[C@H]4CN[C@H](C)CN4CC(=O)N4CC(C)(C)c5[nH]c(=O)c(Cc6ccc(F)cc6)cc54)CCO3)C2)CN1 [Example 121, (2S,2'S)-N,N′-(((oxybis(ethane-2,1-diyl))bis(oxy))bis(ethane-2,1-diyl))bis(4-(((2R,5R)-1-(2-(6-(4-fluorobenzyl)-3,3-dimethyl-5-oxo-2,3,4,5-tetrahydro-1H-pyrrolo[3,2-b]pyridin-1-yl)-2-oxoethyl)-5-methylpiperazin-2-yl)methyl)morpholine-2-carboxamide)] | 5.50 to 6.00 | 5.50 to 6.00 | 10000 to 51300 | 7.80 to 8.10 | ++++ (FS>10,000) | 63.1 to 316 | 7.80 to 8.10 | +++ (10,000>FS>1,000) | 7.80 to 8.10 | +++ (10,000>FS>1,000)
C[C@@H]1CN(CC(=O)N2CC(C)(C)c3[nH]c(=O)c(Cc4ccc(F)cc4)cc32)[C@@H](CN2CCO[C@H](C(=O)NCc3cccc(CNC(=O)[C@@H]4CN(C[C@H]5CN[C@H](C)CN5CC(=O)N5CC(C)(C)c6[nH]c(=O)c(Cc7ccc(F)cc7)cc65)CCO4)c3)C2)CN1 [Example 122, (2S,2'S)-N,N′-(1,3-phenylenebis(methylene))bis(4-(((2R,5R)-1-(2-(6-(4-fluorobenzyl)-3,3-dimethyl-5-oxo-2,3,4,5-tetrahydro-1H-pyrrolo[3,2-b]pyridin-1-yl)-2-oxoethyl)-5-methylpiperazin-2-yl)methyl)morpholine-2-carboxamide)] | 5.50 to 6.00 | 5.50 to 6.00 | 10000 to 51300 | 7.50 to 7.80 | ++++ (FS>10,000) | 12.6 to 63.1 | 7.80 to 8.10 | +++ (10,000>FS>1,000) | 7.80 to 8.10 | ++ (1,000>FS>100)
C[C@@H]1CN(CC(=O)N2CC(C)(C)c3[nH]c(=O)c(Cc4ccc(F)cc4)cc32)[C@@H](CN2CCO[C@H](C(=O)NCCCN3CCN(CCCNC(=O)[C@@H]4CN(C[C@H]5CN[C@H](C)CN5CC(=O)N5CC(C)(C)c6[nH]c(=O)c(Cc7ccc(F)cc7)cc65)CCO4)CC3)C2)CN1 [Example 123, (2S,2'S)-N,N′-(piperazine-1,4-diylbis(propane-3,1-diyl))bis(4-(((2R,5R)-1-(2-(6-(4-fluorobenzyl)-3,3-dimethyl-5-oxo-2,3,4,5-tetrahydro-1H-pyrrolo[3,2-b]pyridin-1-yl)-2-oxoethyl)-5-methylpiperazin-2-yl)methyl)morpholine-2-carboxamide)] | 5.00 to 5.50 | 5.00 to 5.50 | 10000 to 51300 | 7.80 to 8.10 | ++++ (FS>10,000) | 316 to 3310 | 7.80 to 8.10 | +++ (10,000>FS>1,000) | 7.80 to 8.10 | +++ (10,000>FS>1,000)
C[C@@H]1CN(CC(=O)N2CC(C)(C)c3[nH]c(=O)c(Cc4ccc(F)cc4)cc32)[C@@H](CN2CCO[C@H](C(=O)N(C)CCCCCCN(C)C(=O)[C@@H]3CN(C[C@H]4CN[C@H](C)CN4CC(=O)N4CC(C)(C)c5[nH]c(=O)c(Cc6ccc(F)cc6)cc54)CCO3)C2)CN1 [Example 124, (2S,2'S)-N,N′-(hexane-1,6-diyl)bis(4-(((2R,5R)-1-(2-(6-(4-fluorobenzyl)-3,3-dimethyl-5-oxo-2,3,4,5-tetrahydro-1H-pyrrolo[3,2-b]pyridin-1-yl)-2-oxoethyl)-5-methylpiperazin-2-yl)methyl)-N-methylmorpholine-2-carboxamide)] | 5.50 to 6.00 | 5.50 to 6.00 | 10000 to 51300 | 7.80 to 8.10 | ++++ (FS>10,000) | 12.6 to 63.1 | 7.80 to 8.10 | +++ (10,000>FS>1,000) | 7.80 to 8.10 | +++ (10,000>FS>1,000)
C[C@@H]1CN(CC(=O)N2CC(C)(C)c3[nH]c(=O)c(Cc4ccc(F)cc4)cc32)[C@@H](CN2CCO[C@H](C(=O)NCCCNC(=O)[C@@H]3CN(C[C@H]4CN[C@H](C)CN4CC(=O)N4CC(C)(C)c5[nH]c(=O)c(Cc6ccc(F)cc6)cc54)CCO3)C2)CN1 [Example 125, (2S,2'S)-N,N′-(Propane-1,3-diyl)bis(4-(((2R,5R)-1-(2-(6-(4-fluorobenzyl)-3,3-dimethyl-5-oxo-2,3,4,5-tetrahydro-1H-pyrrolo[3,2-b]pyridin-1-yl)-2-oxoethyl)-5-methylpiperazin-2-yl)methyl)morpholine-2-carboxamide)] | 5.00 to 5.50 | 5.50 to 6.00 | 10000 to 51300 | 7.50 to 7.80 | ++++ (FS>10,000) | 63.1 to 316 | 7.80 to 8.10 | +++ (10,000>FS>1,000) | 7.80 to 8.10 | +++ (10,000>FS>1,000)
C[C@@H]1CN(CC(=O)N2CC(C)(C)c3[nH]c(=O)c(Cc4ccc(F)cc4)cc32)[C@@H](CN2CCO[C@H](C(=O)NCCCCNC(=O)[C@@H]3CN(C[C@H]4CN[C@H](C)CN4CC(=O)N4CC(C)(C)c5[nH]c(=O)c(Cc6ccc(F)cc6)cc54)CCO3)C2)CN1 [Example 126, (2S,2'S)-N,N′-(butane-1,4-diyl)bis(4-(((2R,5R)-1-(2-(6-(4-fluorobenzyl)-3,3-dimethyl-5-oxo-2,3,4,5-tetrahydro-1H-pyrrolo[3,2-b]pyridin-1-yl)-2-oxoethyl)-5-methylpiperazin-2-yl)methyl)morpholine-2-carboxamide)] | 5.50 to 6.00 | 5.50 to 6.00 | 10000 to 51300 | 7.80 to 8.10 | ++++ (FS>10,000) | 63.1 to 316 | 7.80 to 8.10 | +++ (10,000>FS>1,000) | 7.80 to 8.10 | +++ (10,000>FS>1,000)
C[C@@H]1CN(CC(=O)N2CC(C)(C)c3[nH]c(=O)c(Cc4ccc(F)cc4)cc32)[C@@H](CN2CCO[C@H](C(=O)N(C)CCCCN(C)C(=O)[C@@H]3CN(C[C@H]4CN[C@H](C)CN4CC(=O)N4CC(C)(C)c5[nH]c(=O)c(Cc6ccc(F)cc6)cc54)CCO3)C2)CN1 [Example 127, (2S,2'S)-N,N′-(butane-1,4-diyl)bis(4-(((2R,5R)-1-(2-(6-(4-fluorobenzyl)-3,3-dimethyl-5-oxo-2,3,4,5-tetrahydro-1H-pyrrolo[3,2-b]pyridin-1-yl)-2-oxoethyl)-5-methylpiperazin-2-yl)methyl)-N-methylmorpholine-2-carboxamide)] | 5.50 to 6.00 | 5.50 to 6.00 | 10000 to 51300 | 7.80 to 8.10 | ++++ (FS>10,000) | 63.1 to 316 | 7.80 to 8.10 | +++ (10,000>FS>1,000) | 7.80 to 8.10 | +++ (10,000>FS>1,000)
C[C@@H]1CN(CC(=O)N2CC(C)(C)c3[nH]c(=O)c(Cc4ccc(F)cc4)cc32)[C@@H](CN2CCO[C@H](C(=O)NCCNC(=O)[C@@H]3CN(C[C@H]4CN[C@H](C)CN4CC(=O)N4CC(C)(C)c5[nH]c(=O)c(Cc6ccc(F)cc6)cc54)CCO3)C2)CN1 [Example 128, (2S,2'S)-N,N′-(ethane-1,2-diyl)bis(4-(((2R,5R)-1-(2-(6-(4-fluorobenzyl)-3,3-dimethyl-5-oxo-2,3,4,5-tetrahydro-1H-pyrrolo[3,2-b]pyridin-1-yl)-2-oxoethyl)-5-methylpiperazin-2-yl)methyl)morpholine-2-carboxamide)] | 5.00 to 5.50 | 5.00 to 5.50 | 10000 to 51300 | 7.50 to 7.80 | ++++ (FS>10,000) | 316 to 3310 | 7.80 to 8.10 | +++ (10,000>FS>1,000) | 7.50 to 7.80 | +++ (10,000>FS>1,000)
